In patent publication US20260158152A1, “SPLICING MODULATOR ANTIBODY-DRUG CONJUGATES AND METHODS OF USE” (EISAI R&D MANAGEMENT CO., LTD., priority 2018, published 2026):

Tests used:
N87 cells = test: Cell viability CellTiter-Glo, N87; format: cell-based, human; settings: unconjugated payload of the ADC
THP1.1 = test: Payload cell potency and lethality CellTiter-Glo, THP1; format: cell-based; settings: payload of the ADC
Method: Each concentration was tested in triplicate. […] Values represent time zero (TO).

PC3 cells = test: Cell viability, EPHA2-expressing PC3; format: cell-based; settings: free payload of the ADC
Caco-2 cells = test: Caco-2 permeability of ADC payload; format: in vitro ADME; settings: corresponding free payload, B-A
NCIH1650.1 = test: Payload cellular potency, CTGlo-ATS, 72 h, NCIH1650.1; format: cell-based; settings: corresponding free payload, cell line #1, 72 h
[1] = tested on: FBXW5 (mature mRNA transcript); test: In vivo PD RT-qPCR in NCI-N87 tumors, FBXW5; parameters: species or system CB17-SCID mice; settings: 10 mg/kg IV single dose, NCI-N87 xenograft, versus vehicle
[2] = tested on: TAOK1 (neojunction transcript); test: In vivo PD RT-qPCR in NCI-N87 tumors, TAOK1; parameters: species or system CB17-SCID mice; settings: 10 mg/kg IV single dose, NCI-N87 xenograft, versus vehicle
[3] = Caco-2 permeability of ADC payload; format: in vitro ADME; settings: human, Caco-2; payload, apical to basolateral, 2 hours; read-out: Permeability Mean Caco-2 A-B Perm (10e−6 cm/s)
MOLP8 cells = test: Cell viability, CD138-expressing MOLP8; format: cell-based; settings: unconjugated payload of the ADC
Ad2.1 pre-mRNA splicing = test: In vitro splicing (IVS) RT-qPCR, Ad2.1 pre-mRNA in HeLa S3 nuclear extract; format: biochemical; settings: payload of the ADC; read-out: qPCR-IVS-ATS GMean IC50 (nM) Ad2.1
Method: To evaluate payload activity in a cell-free system, an in vitro splicing assay was performed. The payloads were incubated with nuclear extracts and pre-mRNA substrate minigenes.
HeLa nuclear extract preparation: HeLa S3 cell pellets were resuspended in hypotonic buffer (10 mM HEPES PH 7.9, 1.5 mM MgCl2, 10 mM KCl, 0.2 mM PMSF, 0.5 mM DTT) and the suspension was brought up to a total of 5 packed cell volume (PCV). After centrifugation, the supernatant was discarded, and the cells were brought up to 3 PCV with hypotonic buffer and incubated on ice for 10 min. Cells were lysed using a dounce homogenizer and then centrifuged. […]. The nuclei were gently mixed for 30 min before centrifuging. The supernatant (nuclear extract) was then dialyzed into storage buffer (20 mM HEPES pH 7.9, 100 mM KCl, 0.2 mM EDTA, 20% glycerol, 0.2 mM PMSF, 0.5 mM DTT). Protein concentration was determined using NanoDrop 8000 UV-Vis spectrophotometer (ThermoFisher Scientific).
IVS: All Ad2-derived sequences (Pellizzoni et al. (1998) Cell 95 (5): 615-24) were cloned into pcDNA3.1(+) vector (Promega) using 5′ EcoRI and 3′ XbaI restriction sites. The plasmids were linearized using XbaI and used as DNA templates in in vitro transcription reactions. The FtzΔi intron-less plasmid (Luo and Reed (1999) 96 (26): 14937-42) was linearized using EcoRI. […]

Compound | Payload Rmin (%) (N87 cells) | Payload Rmin (PC3 cells) | Perm. Mean Caco-2 B-A Perm (Caco-2 cells) | CTGlo-ATS GMean LD50 72 h NCIH1650.1 (NCIH1650.1) | Papp A→B at 2 h, 10 µM [3] | also measured
CC[C@H](O)[C@@H](C)[C@H]1O[C@@H]1C[C@@](C)(O)/C=C/C=C(\C)[C@H]1OC(=O)C[C@H](O)CC[C@@](C)(OC)[C@@H](OC(=O)N2CCNCC2)/C=C/[C@@H]1C (stereo in doubt) [D1] | −40.041% | −71.987% | 2.05 10e−6 cm/s | >10 µM | – | CTGlo-ATS Mean MinResponse % THP1.1 (THP1.1): −100.815%
CC(=O)N1CCC(n2nnc3c(F)cc(/C=C(\C)[C@H]4OC(=O)C[C@H](O)CC[C@H](C)[C@@H](OC(=O)N5CC[N+](C)(Cc6ccc(NC(=O)[C@H](C)NC(=O)[C@@H](NC(=O)CCCCCN7C(=O)C=CC7=O)C(C)C)cc6)CC5)/C=C/[C@@H]4C)cc32)CC1 [ADL5-D15, 4-((((2S,3S,6R,7S,10R,E)-2-((E)-1-(1-(1-acetylpiperidin-4-yl)-4-fluoro-1H-benzo[d][1,2,3]triazol-6-yl)prop-1-en-2-yl)-10-hydroxy-3,7-dimethyl-12-oxooxacyclododec-4-en-6-yl)oxy)carbonyl)-1-(4-((S)-2-((S)-2-(6-(2,5-dioxo-2,5-dihydro-1H-pyrrol-1-yl)hexanamido)-3-methylbutanamido)propanamido)benzyl)-1-methylpiperazin-1-ium] | – | – | – | – | – | change in FBXW5 mature mRNA transcript in tumors [1]: significant depletion of FBXW5; change in TAOK1 neojunction transcript in tumors [2]: showed an increase in TAOK1, but did not reach statistical significance
CC[C@H](O)[C@@H](C)[C@H]1O[C@@H]1C[C@@](C)(O)/C=C/C=C(\C)[C@H]1OC(=O)C[C@H](O)CC[C@@](C)(OC(=O)N2CCNCC2)[C@@H](OC(C)=O)/C=C/[C@@H]1C [D8, (2S,3S,6S,7R,10R,E)-6-acetoxy-10-hydroxy-2-((R,2E,4E)-6-hydroxy-7-((2R,3R)-3-((2R,3S)-3-hydroxypentan-2-yl)oxiran-2-yl)-6-methylhepta-2,4-dien-2-yl)-3,7-dimethyl-12-oxooxacyclododec-4-en-7-yl piperazine-1-carboxylate] | −34.052% | −68.37% | 2.027 10e−6 cm/s | >10 µM | 0.138 ×10⁻⁶ cm/s | –
CC[C@H](O)[C@@H](C)[C@H]1O[C@@H]1C[C@@](C)(O)/C=C/C=C(\C)[C@H]1OC(=O)C[C@H](O)CC[C@@](C)(O)[C@@H](OC(=O)N2CCNCC2)/C=C/[C@@H]1C [D12] | – | – | 0.23 10e−6 cm/s | >100 µM | – | –
CC(=O)N1CCC(n2nnc3c(F)cc(/C=C(\C)[C@H]4OC(=O)C[C@H](O)CC[C@H](C)[C@@H](OC(=O)N5CCNCC5)/C=C/[C@@H]4C)cc32)CC1 [D14] | −52.662% | −79.835% | – | – | 0.08 ×10⁻⁶ cm/s | Payload Rmin (%) (MOLP8 cells): −6.1%
C/C(=C\c1cc(F)cc(N2CCN(C(=O)Cn3cccn3)CC2)c1)[C@H]1OC(=O)C[C@H](O)CC[C@H](C)[C@@H](OC(=O)N2CCNCC2)/C=C/[C@@H]1C [D16] | – | – | – | – | – | IC50 (Ad2.1 pre-mRNA splicing): 18 nM; Payload cell lethality: CT..-ATS GMean LD50 (nM) THP1.1 (THP1.1): 21.48 nM
